Measured values as given in patent US20230085307A1, “PYRIDAZINONE COMPOUND AND HERBICIDE” (NISSAN CHEMICAL CORPORATION, priority 2019, published 2023).

What was measured:
southern crabgrass [1] = assay: Test Example 4: herbicidal effect by soil treatment (Table 19, symbol F); assay type: in vivo, southern crabgrass (Digitaria ciliaris)
In short: (§1)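 Emulsion of test compound, water-diluted to predetermined amount, sprayed on soil after sowing (seed depth ~1.5 cm, sterilized diluvial soil). Greenhouse, 25–30° C. Effect graded at three weeks post-spray.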

Italian ryegrass [2] = assay: Test Example 5: herbicidal effect by foliage application, plastic box (Table 20, symbol K); assay type: in vivo, Italian ryegrass (Lolium multiflorum); details: evaluated three weeks after application
In short: (§2)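 Post-emergence foliar test in sterilized diluvial soil. Compound applied as water-diluted emulsion at a predetermined rate to 14-day-old plants; evaluation at three weeks.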

chickweed [3] = assay: Test Example 5: herbicidal effect by foliage application, plastic box (Table 20, symbol P); assay type: in vivo, common chickweed (Stellaria media); details: evaluated three weeks after application
In short: as §2

rice flat sedge = assay: Test Example 3: herbicidal effect by foliage application, Wagner pot (Table 18, symbol E); assay type: in vivo, rice flat sedge (Cyperus iria); details: 320 g/ha
In short: (§3)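 Plants were sown in alluvial soil held under 0.1–0.5 cm standing water and grown 14 days in a greenhouse at 25–30 °C. An emulsifiable formulation, water-diluted to the set dose, was then sprayed onto the foliage, and effects were scored three weeks later using previously defined criteria.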

blackgrass [4] = assay: Test Example 4: herbicidal effect by soil treatment (Table 19, symbol J); assay type: in vivo, blackgrass (Alopecurus myosuroides)
In short: as §1

Japanese bulrush = assay: Test Example 1: herbicidal activity, application before weed generation under submerged conditions (Table 16, symbol B); assay type: in vivo, Japanese bulrush (Schoenoplectus juncoides)
In short: (§4)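 Emulsion formulation, water-diluted to set dose, was put onto the flooded surface (4 cm depth, alluvial soil) the same day weeds were sown and 2.5-leaf rice transplanted. After 3 weeks at 25-30 °C under glass, each species was rated 0 (≤5% kill) to 5 (≥90% kill).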

southern crabgrass [5] = assay: Test Example 5: herbicidal effect by foliage application, plastic box (Table 20, symbol F); assay type: in vivo, southern crabgrass (Digitaria ciliaris); details: evaluated three weeks after application
In short: as §2

chickweed [6] = assay: Test Example 4: herbicidal effect by soil treatment (Table 19, symbol P); assay type: in vivo, common chickweed (Stellaria media)
In short: as §1

barnyard grass [7] = assay: Test Example 3: herbicidal effect by foliage application, Wagner pot (Table 18, symbol H); assay type: in vivo, barnyard grass (Echinochloa crus-galli); details: 320 g/ha
In short: as §3

Chinese sprangletop = assay: Test Example 3: herbicidal effect by foliage application, Wagner pot (Table 18, symbol D); assay type: in vivo, chinese sprangletop (Leptochloa chinensis); details: 320 g/ha
In short: as §3

blackgrass [8] = assay: Test Example 5: herbicidal effect by foliage application, plastic box (Table 20, symbol J); assay type: in vivo, blackgrass (Alopecurus myosuroides); details: evaluated three weeks after application
In short: as §2

late watergrass = assay: Test Example 1: herbicidal activity, application before weed generation under submerged conditions (Table 16, symbol A); assay type: in vivo, late watergrass (Echinochloa oryzicola)
In short: as §4

wild oat [9] = assay: Test Example 5: herbicidal effect by foliage application, plastic box (Table 20, symbol I); assay type: in vivo, wild oat (Avena fatua); details: evaluated three weeks after application
In short: as §2

windgrass [10] = assay: Test Example 5: herbicidal effect by foliage application, plastic box (Table 20, symbol L); assay type: in vivo, windgrass (Apera spica-venti); details: evaluated three weeks after application
In short: as §2

barnyard grass [11] = assay: Test Example 4: herbicidal effect by soil treatment (Table 19, symbol H); assay type: in vivo, barnyard grass (Echinochloa crus-galli)
In short: as §1

barnyard grass [12] = assay: Test Example 5: herbicidal effect by foliage application, plastic box (Table 20, symbol H); assay type: in vivo, barnyard grass (Echinochloa crus-galli); details: evaluated three weeks after application
In short: as §2

redroot pigweed [13] = assay: Test Example 4: herbicidal effect by soil treatment (Table 19, symbol N); assay type: in vivo, redroot pigweed (Amaranthus retroflexus)
In short: as §1

persian speedwell = assay: Test Example 5: herbicidal effect by foliage application, plastic box (Table 20, symbol R); assay type: in vivo, Persian speedwell (Veronica persica); details: evaluated three weeks after application
In short: as §2

velvetleaf [14] = assay: Test Example 5: herbicidal effect by foliage application, plastic box (Table 20, symbol M); assay type: in vivo, velvetleaf (Abutilon theophrasti); details: evaluated three weeks after application
In short: as §2

wild oat [15] = assay: Test Example 4: herbicidal effect by soil treatment (Table 19, symbol I); assay type: in vivo, wild oat (Avena fatua)
In short: as §1

green foxtail [16] = assay: Test Example 4: herbicidal effect by soil treatment (Table 19, symbol G); assay type: in vivo, green foxtail (Setaria viridis)
In short: as §1

velvetleaf [17] = assay: Test Example 4: herbicidal effect by soil treatment (Table 19, symbol M); assay type: in vivo, velvetleaf (Abutilon theophrasti)
In short: as §1

lambsquarters [18] = assay: Test Example 5: herbicidal effect by foliage application, plastic box (Table 20, symbol O); assay type: in vivo, lambsquarters (Chenopodium album); details: evaluated three weeks after application
In short: as §2

oval-leafed pondweed = assay: Test Example 1: herbicidal activity, application before weed generation under submerged conditions (Table 16, symbol C); assay type: in vivo, oval-leafed pondweed (Monochoria vaginalis)
In short: as §4

green foxtail [19] = assay: Test Example 5: herbicidal effect by foliage application, plastic box (Table 20, symbol G); assay type: in vivo, green foxtail (Setaria viridis); details: evaluated three weeks after application
In short: as §2

Italian ryegrass [20] = assay: Test Example 4: herbicidal effect by soil treatment (Table 19, symbol K); assay type: in vivo, Italian ryegrass (Lolium multiflorum)
In short: as §1

windgrass [21] = assay: Test Example 4: herbicidal effect by soil treatment (Table 19, symbol L); assay type: in vivo, windgrass (Apera spica-venti)
In short: as §1

lambsquarters [22] = assay: Test Example 4: herbicidal effect by soil treatment (Table 19, symbol O); assay type: in vivo, lambsquarters (Chenopodium album)
In short: as §1

redroot pigweed [23] = assay: Test Example 5: herbicidal effect by foliage application, plastic box (Table 20, symbol N); assay type: in vivo, redroot pigweed (Amaranthus retroflexus); details: evaluated three weeks after application
In short: as §2

[24] = amount of applied herbicide 320 g/ha
[25] = amount of applied herbicide 320 g/ha, foliage application after 14-day growth

## Cc1nn(C)c(=O)c(-c2c(-c3ccc(F)cc3)sc3c(C)cccc23)c1O [4-100]
Southern crabgrass [1]; [24]
  Herbicidal effect by soil treatment, F: southern crabgrass: 0 (Herbicidal rate of 5% or less (almost no effect))
Italian ryegrass [2]; [25]
  Herbicidal effect by foliage application, K: Italian ryegrass: 3 (Herbicidal rate of 40% or more and less than 70%)
Chickweed [3]; [25]
  Herbicidal effect by foliage application, P: chickweed: 5 (Herbicidal rate of 90% or more (almost completely withered))
Rice flat sedge
  herbicidal effect on rice flat sedge (E): 0 (Herbicidal rate of 5% or less (almost no effect))
Blackgrass [4]; [24]
  Herbicidal effect by soil treatment, J: blackgrass: 0 (Herbicidal rate of 5% or less (almost no effect))
Japanese bulrush; [24]
  Herbicidal effect, B: Japanese bulrush: 3 (Herbicidal rate of 40% or more and less than 70%)
Southern crabgrass [5]; [25]
  Herbicidal effect by foliage application, F: southern crabgrass: 0 (Herbicidal rate of 5% or less (almost no effect))
Chickweed [6]; [24]
  Herbicidal effect by soil treatment, P: chickweed: 3 (Herbicidal rate of 40% or more and less than 70%)
Barnyard grass [7]
  herbicidal effect on barnyard grass (H): 2 (Herbicidal rate of 20% or more and less than 40%)
Chinese sprangletop
  herbicidal effect on Chinese sprangletop (D): 0 (Herbicidal rate of 5% or less (almost no effect))
Blackgrass [8]; [25]
  Herbicidal effect by foliage application, J: blackgrass: 3 (Herbicidal rate of 40% or more and less than 70%)
Late watergrass; [24]
  Herbicidal effect, A: late watergrass: 3 (Herbicidal rate of 40% or more and less than 70%)
Wild oat [9]; [25]
  Herbicidal effect by foliage application, I: wild oat: 0 (Herbicidal rate of 5% or less (almost no effect))
Windgrass [10]; [25]
  Herbicidal effect by foliage application, L: windgrass: 1 (Herbicidal rate of 5% or more and less than 20%)
Barnyard grass [11]; [24]
  Herbicidal effect by soil treatment, H: barnyard grass: 0 (Herbicidal rate of 5% or less (almost no effect))
Barnyard grass [12]; [25]
  Herbicidal effect by foliage application, H: barnyard grass: 0 (Herbicidal rate of 5% or less (almost no effect))
Redroot pigweed [13]; [24]
  Herbicidal effect by soil treatment, N: redroot pigweed: 3 (Herbicidal rate of 40% or more and less than 70%)
Persian speedwell; [25]
  Herbicidal effect by foliage application, R: persian speedwell: 5 (Herbicidal rate of 90% or more (almost completely withered))
Velvetleaf [14]; [25]
  Herbicidal effect by foliage application, M: velvetleaf: 5 (Herbicidal rate of 90% or more (almost completely withered))
Wild oat [15]; [24]
  Herbicidal effect by soil treatment, I: wild oat: 0 (Herbicidal rate of 5% or less (almost no effect))
Green foxtail [16]; [24]
  Herbicidal effect by soil treatment, G: green foxtail: 1 (Herbicidal rate of 5% or more and less than 20%)
Velvetleaf [17]; [24]
  Herbicidal effect by soil treatment, M: velvetleaf: 3 (Herbicidal rate of 40% or more and less than 70%)
Lambsquarters [18]; [25]
  Herbicidal effect by foliage application, O: lambsquarters: 5 (Herbicidal rate of 90% or more (almost completely withered))
oval-leafed pondweed; [24]
  Herbicidal effect, C: oval-leafed pondweed: 1 (Herbicidal rate of 5% or more and less than 20%)
Green foxtail [19]; [25]
  Herbicidal effect by foliage application, G: green foxtail: 0 (Herbicidal rate of 5% or less (almost no effect))
Italian ryegrass [20]; [24]
  Herbicidal effect by soil treatment, K: Italian ryegrass: 0 (Herbicidal rate of 5% or less (almost no effect))
Windgrass [21]; [24]
  Herbicidal effect by soil treatment, L: windgrass: 0 (Herbicidal rate of 5% or less (almost no effect))
Lambsquarters [22]; [24]
  Herbicidal effect by soil treatment, O: lambsquarters: 4 (Herbicidal rate of 70% or more and less than 90%)
Redroot pigweed [23]; [25]
  Herbicidal effect by foliage application, N: redroot pigweed: 4 (Herbicidal rate of 70% or more and less than 90%)

## Cc1nn(C)c(=O)c(-c2c(-c3ccc(OS(=O)(=O)C(F)(F)F)cc3)sc3ccc(F)cc23)c1O [2-075]
Southern crabgrass [1]; 320 g/ha
  herbicidal effect rating, F: southern crabgrass: 0 (Herbicidal rate of 5% or less (almost no effect))
Italian ryegrass [2]; foliage application, 320 g/ha
  herbicidal effect on K: Italian ryegrass: 0 (Herbicidal rate of 5% or less (almost no effect))
Chickweed [3]; foliage application, 320 g/ha
  herbicidal effect on P: chickweed: 3 (Herbicidal rate of 40% or more and less than 70%)
Rice flat sedge
  herbicidal effect on E (rice flat sedge), rating 0-5: 4 (Herbicidal rate of 70% or more and less than 90%)
Blackgrass [4]; 320 g/ha
  herbicidal effect rating, J: blackgrass: 0 (Herbicidal rate of 5% or less (almost no effect))
Japanese bulrush; 320 g/ha applied herbicide
  Herbicidal effect on B: Japanese bulrush (grade 0-5): 2 (Herbicidal rate of 20% or more and less than 40%)
Southern crabgrass [5]; foliage application, 320 g/ha
  herbicidal effect on F: southern crabgrass: 0 (Herbicidal rate of 5% or less (almost no effect))
Chickweed [6]; 320 g/ha
  herbicidal effect rating, P: chickweed: 0 (Herbicidal rate of 5% or less (almost no effect))
Barnyard grass [7]
  herbicidal effect on H (barnyard grass), rating 0-5: 2 (Herbicidal rate of 20% or more and less than 40%)
Chinese sprangletop
  herbicidal effect on D (Chinese sprangletop), rating 0-5: 2 (Herbicidal rate of 20% or more and less than 40%)
Blackgrass [8]; foliage application, 320 g/ha
  herbicidal effect on J: blackgrass: 0 (Herbicidal rate of 5% or less (almost no effect))
Late watergrass; 320 g/ha applied herbicide
  Herbicidal effect on A: late watergrass (grade 0-5): 2 (Herbicidal rate of 20% or more and less than 40%)
Wild oat [9]; foliage application, 320 g/ha
  herbicidal effect on I: wild oat: 0 (Herbicidal rate of 5% or less (almost no effect))
Windgrass [10]; foliage application, 320 g/ha
  herbicidal effect on L: windgrass: 0 (Herbicidal rate of 5% or less (almost no effect))
Barnyard grass [11]; 320 g/ha
  herbicidal effect rating, H: barnyard grass: 0 (Herbicidal rate of 5% or less (almost no effect))
Barnyard grass [12]; foliage application, 320 g/ha
  herbicidal effect on H: barnyard grass: 0 (Herbicidal rate of 5% or less (almost no effect))
Redroot pigweed [13]; 320 g/ha
  herbicidal effect rating, N: redroot pigweed: 1 (Herbicidal rate of 5% or more and less than 20%)
Persian speedwell; foliage application, 320 g/ha
  herbicidal effect on R: persian speedwell: 5 (Herbicidal rate of 90% or more (almost completely withered))
Velvetleaf [14]; foliage application, 320 g/ha
  herbicidal effect on M: velvetleaf: 3 (Herbicidal rate of 40% or more and less than 70%)
Wild oat [15]; 320 g/ha
  herbicidal effect rating, I: wild oat: 0 (Herbicidal rate of 5% or less (almost no effect))
Green foxtail [16]; 320 g/ha
  herbicidal effect rating, G: green foxtail: 0 (Herbicidal rate of 5% or less (almost no effect))
Velvetleaf [17]; 320 g/ha
  herbicidal effect rating, M: velvetleaf: 0 (Herbicidal rate of 5% or less (almost no effect))
Lambsquarters [18]; foliage application, 320 g/ha
  herbicidal effect on O: lambsquarters: 3 (Herbicidal rate of 40% or more and less than 70%)
oval-leafed pondweed; 320 g/ha applied herbicide
  Herbicidal effect on C: oval-leafed pondweed (grade 0-5): 0 (Herbicidal rate of 5% or less (almost no effect))
Green foxtail [19]; foliage application, 320 g/ha
  herbicidal effect on G: green foxtail: 0 (Herbicidal rate of 5% or less (almost no effect))
Italian ryegrass [20]; 320 g/ha
  herbicidal effect rating, K: Italian ryegrass: 0 (Herbicidal rate of 5% or less (almost no effect))
Windgrass [21]; 320 g/ha
  herbicidal effect rating, L: windgrass: 0 (Herbicidal rate of 5% or less (almost no effect))
Lambsquarters [22]; 320 g/ha
  herbicidal effect rating, O: lambsquarters: 3 (Herbicidal rate of 40% or more and less than 70%)
Redroot pigweed [23]; foliage application, 320 g/ha
  herbicidal effect on N: redroot pigweed: 2 (Herbicidal rate of 20% or more and less than 40%)
